Laboratory results from ChEMBL document CHEMBL1123642, “Design and synthesis of phosphonate inhibitors of glutamine synthetase” (J Med Chem, 1987).

What was measured:
[1] = system: glutamine synthetase (Ovis aries); test: Tested for the inhibition of Glutamine synthetase (Ovine brain) activity using Gamma-glutamyl transferase assay [[…] (pH 7), 5 mM MgCl2] at a concentration of 1.0 mM
[2] = system: glutamine synthetase (Ovis aries); test: Tested for the inhibition of Glutamine synthetase (Ovine brain) activity using Gamma-glutamyl transferase assay [[…] (pH 7), 5 mM MgCl2] at a concentration of 0 mM
[3] = system: glutamine synthetase (Pisum sativum); test: Tested for the inhibition of Glutamine synthetase (Pea seed) activity using Gamma-glutamyl transferase assay [[…] (pH 7), 5 mM MgCl2] at a concentration of 1.0 mM; settings: Lathyrus oleraceus
[4] = biological target: glutamine synthetase (Escherichia coli) (UniProt P0A9C5); test: Tested for the inhibition of Glutamine synthetase (Escherichia coli) activity using Gamma-glutamyl transferase assay [[…] (pH 7), 5 mM MgCl2] at a concentration of 0 mM
Chain of glutamine synthetase (Escherichia coli) (P0A9C5 whole entry, looked up): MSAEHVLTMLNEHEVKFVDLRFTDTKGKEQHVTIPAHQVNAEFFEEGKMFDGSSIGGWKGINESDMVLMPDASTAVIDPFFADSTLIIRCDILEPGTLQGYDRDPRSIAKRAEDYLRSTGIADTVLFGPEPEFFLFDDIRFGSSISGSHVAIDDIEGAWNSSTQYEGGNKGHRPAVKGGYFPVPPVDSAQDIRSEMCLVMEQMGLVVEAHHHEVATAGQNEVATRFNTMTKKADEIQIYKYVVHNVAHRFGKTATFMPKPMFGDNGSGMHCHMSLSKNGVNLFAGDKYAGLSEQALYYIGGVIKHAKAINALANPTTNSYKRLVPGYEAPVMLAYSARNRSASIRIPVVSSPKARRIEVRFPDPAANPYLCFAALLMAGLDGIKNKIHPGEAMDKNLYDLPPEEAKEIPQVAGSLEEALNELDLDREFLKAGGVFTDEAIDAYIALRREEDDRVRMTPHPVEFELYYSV

[5] = system: glutamine synthetase (Pisum sativum); test: Tested for the inhibition of Glutamine synthetase (Pea seed) activity using biosynthetic assay [[…] (pH 7), 5 mM MgCl2] at a concentration of 0 mM; settings: Lathyrus oleraceus
[6] = biological target: glutamine synthetase (Escherichia coli) (UniProt P0A9C5); test: Tested for the inhibition of Glutamine synthetase (Escherichia coli) activity using biosynthetic assay [[…] (pH 7), 5 mM MgCl2] at a concentration of 10.0 mM
[7] = system: glutamine synthetase (Ovis aries); test: Tested for the inhibition of Glutamine synthetase (Ovine brain) activity using biosynthetic assay [[…] (pH 7), 5 mM MgCl2] at a concentration of 1.0 mM
[8] = system: glutamine synthetase (Ovis aries); test: Tested for the inhibition of Glutamine synthetase (Ovine brain) activity using Gamma-glutamyl transferase assay [[…] (pH 7), 5 mM MgCl2] at a concentration of 0.1 mM
[9] = system: glutamine synthetase (Pisum sativum); test: Tested for the inhibition of Glutamine synthetase (Pea seed) activity using biosynthetic assay [[…] (pH 7), 5 mM MgCl2] at a concentration of 0.1 mM; settings: Lathyrus oleraceus
[10] = system: glutamine synthetase (Pisum sativum); test: Tested for the inhibition of Glutamine synthetase (Pea seed) activity using Gamma-glutamyl transferase assay [[…] (pH 7), 5 mM MgCl2] at a concentration of 0.1 mM; settings: Lathyrus oleraceus
[11] = system: glutamine synthetase (Ovis aries); test: Tested for the inhibition of Glutamine synthetase (Ovine brain) activity using Gamma-glutamyl transferase assay [[…] (pH 7), 5 mM MgCl2] at a concentration of 10.0 mM
[12] = system: glutamine synthetase (Pisum sativum); test: Tested for the inhibition of Glutamine synthetase (Pea seed) activity using Gamma-glutamyl transferase assay [[…] (pH 7), 5 mM MgCl2] at a concentration of 10.0 mM; settings: Lathyrus oleraceus
[13] = biological target: glutamine synthetase (Escherichia coli) (UniProt P0A9C5); test: Tested for the inhibition of Glutamine synthetase (Escherichia coli) activity using biosynthetic assay [[…] (pH 7), 5 mM MgCl2] at a concentration of 1.0 mM
[14] = system: glutamine synthetase (Ovis aries); test: Tested for the inhibition of Glutamine synthetase (Ovine brain) activity using biosynthetic assay [[…] (pH 7), 5 mM MgCl2] at a concentration of 0 mM
[15] = biological target: glutamine synthetase (Escherichia coli) (UniProt P0A9C5); test: Tested for the inhibition of Glutamine synthetase (Escherichia coli) activity using Gamma-glutamyl transferase assay [[…] (pH 7), 5 mM MgCl2] at a concentration of 1.0 mM
[16] = system: glutamine synthetase (Pisum sativum); test: Tested for the inhibition of Glutamine synthetase (Pea seed) activity using Gamma-glutamyl transferase assay [[…] (pH 7), 5 mM MgCl2] at a concentration of 0 mM; settings: Lathyrus oleraceus
[17] = system: glutamine synthetase (Pisum sativum); test: Tested for the inhibition of Glutamine synthetase (Pea seed) activity using biosynthetic assay [[…] (pH 7), 5 mM MgCl2] at a concentration of 10.0 mM; settings: Lathyrus oleraceus
[18] = system: glutamine synthetase (Ovis aries); test: Tested for the inhibition of Glutamine synthetase (Ovine brain) activity using biosynthetic assay [[…] (pH 7), 5 mM MgCl2] at a concentration of 10.0 mM
[19] = biological target: glutamine synthetase (Escherichia coli) (UniProt P0A9C5); test: Tested for the inhibition of Glutamine synthetase (Escherichia coli) activity using Gamma-glutamyl transferase assay [[…] (pH 7), 5 mM MgCl2] at a concentration of 0.1 mM
[20] = biological target: glutamine synthetase (Escherichia coli) (UniProt P0A9C5); test: Tested for the inhibition of Glutamine synthetase (Escherichia coli) activity using biosynthetic assay [[…] (pH 7), 5 mM MgCl2] at a concentration of 0.1 mM
[21] = system: glutamine synthetase (Pisum sativum); test: Tested for the inhibition of Glutamine synthetase (Pea seed) activity using biosynthetic assay [[…] (pH 7), 5 mM MgCl2] at a concentration of 1.0 mM; settings: Lathyrus oleraceus
[22] = biological target: glutamine synthetase (Escherichia coli) (UniProt P0A9C5); test: Tested for the inhibition of Glutamine synthetase (Escherichia coli) activity using Gamma-glutamyl transferase assay [[…] (pH 7), 5 mM MgCl2] at a concentration of 10.0 mM
[23] = biological target: glutamine synthetase (Escherichia coli) (UniProt P0A9C5); test: Tested for the inhibition of Glutamine synthetase (Escherichia coli) activity using biosynthetic assay [[…] (pH 7), 5 mM MgCl2] at a concentration of 0 mM
[24] = system: glutamine synthetase (Ovis aries); test: Tested for the inhibition of Glutamine synthetase (Ovine brain) activity using biosynthetic assay [[…] (pH 7), 5 mM MgCl2] at a concentration of 0.1 mM
[25] = system: glutamine synthetase (Pisum sativum); test: Tested for the inhibition of Glutamine synthetase(Pea seed) activity using Gamma-glutamyl transferase assay [[…] (pH 7), 5 mM MgCl2] at a concentration of 10.0 mM; settings: Lathyrus oleraceus

## CC(N)(CCSCP(=O)(O)O)C(=O)O (stereo not given)
[1]
  Relative activity: 1
[2]
  Relative activity: 1
[3]
  Relative activity: 1
[4]
  Relative activity: 1
[5]
  Relative activity: 1
[6]
  Relative activity: 1.25
[7]
  Relative activity: 1
[8]
  Relative activity: 1
[9]
  Relative activity: 1
[10]
  Relative activity: 1
[11]
  Relative activity: 1.1
[12]
  Relative activity: 1
[13]
  Relative activity: 1.95
[14]
  Relative activity: 1
[15]
  Relative activity: 1.4
[16]
  Relative activity: 1
[17]
  Relative activity: 0.5
[18]
  Relative activity: 1.2
[19]
  Relative activity: 1.1
[20]
  Relative activity: 1
[21]
  Relative activity: 1.2
[22]
  Relative activity: 1.5
[23]
  Relative activity: 1
[24]
  Relative activity: 1

## CC(N)(CCS(=O)(=O)CP(=O)(O)O)C(=O)O (stereo not given)
[1]
  Relative activity: 0.9
[3]
  Relative activity: 0.9
[6]
  Relative activity: 1
[7]
  Relative activity: 1
[8]
  Relative activity: 0.95
[9]
  Relative activity: 1.1
[10]
  Relative activity: 0.8
[11]
  Relative activity: 0.8
[13]
  Relative activity: 1
[15]
  Relative activity: 1.1
[17]
  Relative activity: 0.85
[25]
  Relative activity: 0.9
[18]
  Relative activity: 1
[19]
  Relative activity: 1.1
[20]
  Relative activity: 1.1
[21]
  Relative activity: 0.8
[22]
  Relative activity: 1
[24]
  Relative activity: 1.2

## CC(N)(CC[S+]([O-])CP(=O)(O)O)C(=O)O (stereo not given)
[1]
  Relative activity: 1
[3]
  Relative activity: 0.9
[6]
  Relative activity: 0.95
[7]
  Relative activity: 1.2
[8]
  Relative activity: 1
[9]
  Relative activity: 1.1
[10]
  Relative activity: 0.9
[11]
  Relative activity: 1.2
[12]
  Relative activity: 1
[13]
  Relative activity: 1.2
[15]
  Relative activity: 1
[17]
  Relative activity: 0.75
[18]
  Relative activity: 1
[19]
  Relative activity: 1
[20]
  Relative activity: 1.2
[21]
  Relative activity: 1.1
[22]
  Relative activity: 1.5
[24]
  Relative activity: 1.2
